CCCCCCCCCCCCCCCCOc1nc2ccc(C)cc2c(=O)o1
solubility (mole fraction)
Details	278.15 K	283.15 K	288.15 K	293.15 K	298.15 K	303.15 K	308.15 K	313.15 K	318.15 K	323.15 K
in acetone	0.0814	0.0965	0.114	0.133	0.157	0.18	0.208	0.245	0.284	0.327
in acetonitrile	0.0619	0.0759	0.089	0.106	0.123	0.144	0.167	0.191	0.222	0.259
in isopropanol	0.0702	0.0829	0.0979	0.116	0.137	0.158	0.181	0.207	0.241	0.28
